Legend:
Fusarium culmorum [1] = assay: microbe, parasite or virus in culture; format: cell-based; conditions: read-out: control of Fusarium culmorum
[2] = system: Botryotinia fuckeliana (Botrytis cinerea); assay: Botryotinia fuckeliana (Botrytis cinerea) / liquid culture (gray mould); format: cell-based; conditions: 72 h, read-out: control of Botryotinia fuckeliana
[3] = system: Glomerella lagenarium (Colletotrichum lagenarium); assay: Glomerella lagenarium (Colletotrichum lagenarium) / liquid culture (anthracnose); format: cell-based; conditions: Colletotrichum orbiculare; read-out: control of Glomerella lagenarium
Fusarium culmorum [4] = assay: whole plant or invertebrate; format: in vivo; conditions: in Triticum aestivum, read-out: control of Fusarium culmorum
Sclerotinia sclerotiorum = Sclerotinia sclerotiorum / liquid culture (cottony rot); conditions: 72 h, read-out: control of Sclerotinia sclerotiorum
Method: Sclerotinia sclerotiorum/Liquid Culture (Cottony Rot)
Mycelia fragments of a newly grown liquid culture of the fungus are directly mixed into nutrient broth (Vogels broth). After placing a (DMSO) solution of test compound into a microtiter plate (96-well format) the nutrient broth containing the fungal material is added. The test plates are incubated at 24° C. and the inhibition of growth is determined photometrically 3-4 days after application.

[5] = system: Magnaporthe grisea (Pyricularia oryzae); assay: microbe, parasite or virus in culture; format: cell-based; conditions: 72 h, read-out: control of Magnaporthe grisea
[6] = system: Monographella nivalis (Microdochium nivale); assay: Monographella nivalis (Microdochium nivale) / liquid culture (foot rot cereals); format: cell-based; conditions: 96 h, read-out: control of Monographella nivalis
Gaeumannomyces graminis = Gaeumannomyces graminis / liquid culture (take-all of cereals); format: cell-based; conditions: read-out: control of Gaeumannomyces graminis

Compound | inhibition of growth at 200 ppm (Fusarium culmorum [1]) [%] | melting point [°C] | inhibition of growth at 200 ppm [2] [%] | inhibition of growth at 200 ppm [3] [%] | pest or weed control at 200 ppm (Fusarium culmorum [4]) [%] | inhibition of growth at 20 ppm (Sclerotinia sclerotiorum) [%] | inhibition of growth at 200 ppm [5] [%] | inhibition of growth at 200 ppm [6] [%] | inhibition of growth at 200 ppm (Gaeumannomyces graminis) [%]
Cc1c(C(=O)NC(C)(Cc2ccccc2)CC(C)C)cnc2c(F)cccc12 (stereo not drawn) [Compound E-15, N-(1-benzyl-1,3-dimethyl-butyl)-8-fluoro-4-methyl-quinoline-3-carboxamide] | ≥ 80 | 92 to 94 | ≥ 80 | ≥ 80 | ≥ 80 | ≥ 80 | ≥ 80 | – | –
CC(C)CC(C)(Cc1ccccc1F)NC(=O)c1cnc2c(F)cccc2c1 (stereo not drawn) [Compound E-21, 8-fluoro-N-[1-[(2-fluorophenyl)methyl]-1,3-dimethyl-butyl]quinoline-3-carboxamide] | ≥ 80 | 105 to 106 | ≥ 80 | ≥ 80 | ≥ 80 | – | ≥ 80 | ≥ 80 | ≥ 80
CC(C)CC(C)(Cc1ccccc1Cl)NC(=O)c1cnc2c(F)cccc2c1 (stereo not drawn) [Compound E-22, N-[1-[(2-chlorophenyl)methyl]-1,3-dimethyl-butyl]-8-fluoro-quinoline-3-carboxamide] | ≥ 80 | 109 to 110 | ≥ 80 | ≥ 80 | ≥ 80 | – | ≥ 80 | ≥ 80 | ≥ 80
Cc1ccccc1CC(C)(CC(C)C)NC(=O)c1cnc2c(F)cccc2c1 (stereo not drawn) [Compound E-23, N-[1,3-dimethyl-1-(o-tolylmethyl)butyl]-8-fluoro-quinoline-3-carboxamide] | ≥ 80 | 125 to 126 | ≥ 80 | ≥ 80 | ≥ 80 | – | ≥ 80 | ≥ 80 | ≥ 80
CC(C)CC(C)(Cc1cccc(Cl)c1)NC(=O)c1cnc2c(F)cccc2c1 (stereo not drawn) [Compound E-27, N-[1-[(3-chlorophenyl)methyl]-1,3-dimethyl-butyl]-8-fluoro-quinoline-3-carboxamide] | ≥ 80 | 41 to 42 | ≥ 80 | ≥ 80 | – | – | ≥ 80 | ≥ 80 | ≥ 80
CCCC(C)(Cc1ccccc1)NC(=O)c1cnc2ccccc2c1 (stereo not drawn) [Compound E-43, N-(1-benzyl-1-methyl-butyl)quinoline-3-carboxamide] | ≥ 80 | – | ≥ 80 | ≥ 80 | ≥ 80 | – | ≥ 80 | ≥ 80 | ≥ 80
CC(C)CC(C)(Cc1cccc(Br)c1)NC(=O)c1cnc2c(F)cccc2c1 (stereo not drawn) [Compound E-45, N-[1-[(3-bromophenyl)methyl]-1,3-dimethyl-butyl]-8-fluoro-quinoline-3-carboxamide] | ≥ 80 | 87 to 89 | ≥ 80 | ≥ 80 | – | – | ≥ 80 | ≥ 80 | ≥ 80
CC(C)CC(C)(Cc1ccccc1)NC(=O)c1cnc2c(F)c(F)ccc2c1 (stereo not drawn) [Compound E-48, N-(1-benzyl-1,3-dimethyl-butyl)-7,8-difluoro-quinoline-3-carboxamide] | ≥ 80 | 114 to 116 | ≥ 80 | ≥ 80 | ≥ 80 | – | ≥ 80 | ≥ 80 | ≥ 80

— patent US10477864B2, “Microbiocidal quinoline (thio)carboxamide derivatives” (priority 2016, dated 2019)
